This is an account of results in patent publication US10533018B2, “Antimicrobial prochelators to target drug-resistant bacteria and methods of making and using the same” (Duke University, priority 2015, dated 2020).

Like-named read-outs stand apart in the source and are kept apart here.

For data set [1], the system named is 7 bacterial strains. The data set is described as follows: Broth microdilution, summary across strains tested. It counts as cell-based. The method, then:
Cultures were incubated on LB (Lennox, Sigma) agar at 37° C. in ambient atmospheric composition. Before beginning an experiment, a single bacterial colony grown on LB agar was resuspended in 2 mL LB broth and incubated overnight to form a turbid cell suspension. The overnight culture was diluted 1:100 in LB and used immediately as the working culture. To assess the antibacterial activity of compounds, the working bacterial culture was aliquoted in a clear, flat-bottomed, 96-well polystyrene plate (Costar) and the compound of interest was added in 2-fold serial dilution from 500 to 1 μM. Plates were covered with a breathable sealing film (Aeroseal, Genesee Scientific) and incubated at 37° C. in ambient atmospheric composition with shaking at 200 rpm. Optical density at 600 nm was recorded after 4 h and 20 h for each well using a standard OD600 protocol with LB serving as the blank. The resulting dose-response curves were fit to a nonlinear regression in GraphPad Prism Version 6 to calculate the IC50 of DB4-51 in each strain.
A general note: Dilution methods test growth across graded concentrations, often in twofold steps.

Data set [2] has as its system Type III β-lactamase from Enterobacter cloacae. The data set can be described thus: LC-MS conversion of prochelator by β-lactamase. In kind it is biochemical. Here is the method: (§1) A commercially available β-lactamase (type III from Enterobacter cloacae, Sigma Aldrich) was used to verify the specificity of compound DB4-51 activation. Aqueous samples of the prochelator with and without β-lactamase were incubated at 25° C. and LC-MS was performed periodically to monitor the conversion. Percent conversion was calculated based upon the area under the LC-MS peak that corresponds to the mass of DB4-51.
LC-MS performed on samples containing 100 μM DB4-51, 10 μM Rofecoxib (as internal standard), and 0.5 units/mL β-lactamase in PBS. Samples were incubated at room temperature and analyzed via LC-MS at time 0. The mass spectrum corresponding to the chromatographic peak eluting at 14 min matches the expected m/z value for […]. After incubation, a new peak appears at 7 mins with corresponding m/z values consistent with expected masses of PT disulfide and the 2:1 PT complex with iron. The internal standard was Rofecoxib which elutes at 16 min. The concentrations of DB4-51, PT, and internal standard were calculated based on prepared calibration curves of the integrated area under the UV peak of each component.
(§2) The reaction products of the prochelator DB4-162 were analyzed by LC-MS. A sample of 100 μM DB4-162 and 10 μM Rofecoxib (internal standard) in PBS was divided into two LC-MS vials and to one was added 0.5 units/mL β-lactamase. After incubating at room temperature, the samples were run on the LC-MS. Integrating the area under the peak of the UV-trace gives a measure of the concentration of that species. By serial dilution, a calibration curve was constructed in order to quantify the concentration of DB4-162 present in solution. The mass spectrum confirms that the prochelator, with a molecular weight of 477.1 g/mol, elutes at 14.5 minutes (FIG. 10).

Data set [3] can be described thus: Stability in aqueous media / PBS (UV-Vis, LC-MS). In kind it is physicochemical. The method, then: as §1
The results from the growth inhibition assays support our hypothesis that β-lactamase-producing bacteria activate DB4-51 to release PT as the active agent. […] The UV-Vis absorbance spectra of DB4-51 and PT in PBS buffer are clearly distinct, with DB4-51 showing a shoulder at 264 nm and a broad absorption peak centered at 315 nm.
In order to monitor the stability of DB4-162, the absorbance spectrum was recorded in PBS. The sample was incubated at 37° C. and the absorbance spectrum was recorded periodically. […] Additionally, the concentration of the prochelator in solution was monitored by LC-MS. A calibration curve was prepared after a serial dilution of DB4-162 was analyzed on the instrument and the area under the broad absorbance band at 260-300 nm that correlates with the prochelator was integrated. This curve was then used to calculate the concentration of DB4-162 present in solution after incubating in PBS at 37° C. The sample was analyzed by LC-MS after 0, 24, and 72 hours. After incubating in PBS for 24 hours more than 85% of the original signal was still observed by LC-MS. However, after 72 hours, it was calculated that approximately 60% of DB4-162 was still present in solution. Given the lack of degradation products in the mass spectrum and the absence of any new absorbance peaks it is possible that aggregation of the prochelator over time is the cause of the observed loss of signal. Together, the UV-Vis and LC-MS data support the overall stability of DB4-162 in aqueous conditions. By comparison, the half-life of most β-lactam antibiotics in vivo is a few hours.[44, 45]
as §2

Data set [4] is described as follows: Zinpyr-1 fluorescence assay. In kind it is physicochemical. Here is the method: Lanes three and four contain 100 μM DB4-51 and 0.5 units/ml β-lactamase respectively and confirm these molecules are innocent in the fluorescence of zinpyr-1. Lane five contains 100 μM DB4-51 and 0.5 units/ml β-lactamase.
Data set [5] concerns mammalian cells. The data set is described as follows: LC-MS of spent mammalian cell culture medium. In kind it is in vitro ADME. The settings on record: spent cell culture medium of cytotoxicity assay; after 4 hours. The method, then: Suspecting that the cytotoxicity apparent at high concentrations of DB4-51 in the mammalian cells may be due to PT released by non-specific hydrolysis of DB4-51, we analyzed the spent cell culture medium used for the cytotoxicity assay by LC-MS and found 50-60% loss of detectable, intact prochelator compared to the non-incubated controls after 4 hours.

In data set [6] the test system is E. coli. In kind it is cell-based. The following applies: checkerboard, LB, OD600. An excerpt: Further evidence for the influence of bioavailable copper on the IC50 of DB4-51 was obtained by using a checkerboard assay. […] Serial dilutions of DB4-51 in LB were arrayed against dilutions of chelator (BCS and EDTA). The antagonism exists between our prochelator, DB4-51, and the strong, extracellular chelators BCS and EDTA. […] However, at lower concentrations, EDTA works antagonistically with DB4-51 by restoring bacterial growth. This trend further underscores the influence that copper and potentially other metals have on the growth inhibitory activity of DB4-51.

Take `O=C(Cc1ccccc1)N[C@@H]1C(=O)N2C(C(=O)O)=C(CSc3cccc[n+]3[O-])CS[C@H]12` [DB4-51, 2-((((6R,7R)-2-carboxy-8-oxo-7-(2-phenylacetamido)-5-thia-1-azabicyclo[4.2.0]oct-2-en-3-yl)methyl)thio)pyridine 1-oxide]: in data set [1] (most ampicillin-resistant strains tested), the “IC50 of DB4-51 relative to that of PT” value is listed as 2-5 fold. For the same compound, the “Percent conversion (LC-MS peak area)” value in data set [2] (100 μM, 0.5 units/ml β-lactamase, pH 7.4 PBS, after 4 hours) is on record as approximately 80%. Also, in data set [2] (after 4 hours in the presence of β-lactamase), the “decrease of chromatographic peak area of prochelator” value is “more than 80%”. Further, in data set [2] (with β-lactamase, PT difficult to quantify), the “PT released from the prochelator (area under PT peak)” value was 50%. Moreover, the “stability by LC-MS” value in data set [3] (PBS, 72 hours at 37° C.) was “no signs of degradation”. In addition, in data set [3] (PBS, after 19 hours), the “absorbance spectrum in PBS” value was “remains unchanged”. Moreover, the “Percent conversion in the absence of the enzyme” value in data set [3] (aqueous, 25° C., after 48 hours) was not above 5%. Moreover, in data set [4] (100 μM + 0.5 units/ml β-lactamase), the “decrease of Zn-zinpyr-1 fluorescence” value was “more than 50%”. For the same compound, in data set [4] (400 equivalents (100 μM), no β-lactamase), the “Zn-zinpyr-1 fluorescence on addition of compound” value is on record as “unaffected”. Also, the “loss of detectable, intact prochelator vs non-incubated controls” value in data set [5] is 50-60%. Moreover, the “interaction with extracellular chelators BCS and EDTA” value in data set [6] is listed as “antagonism”.

In the case of `Cc1csc(=S)n1OCC1=C(C(=O)O)N2C(=O)[C@@H](NC(=O)Cc3ccccc3)[C@H]2SC1` [DB4-162, (6R,7R)-3-(((4-methyl-2-thioxothiazol-3(2H)-yl)oxy)methyl)-8-oxo-7-(2-phenylacetamido)-5-thia-1-azabicyclo[4.2.0]oct-2-ene-2-carboxylic acid], in data set [2] (100 μM, 0.5 units/mL β-lactamase, PBS, 4 hours), the “reduction of prochelator peak” value is on record as “more than 95%”. In addition, the “stability without the enzyme (LC-MS)” value in data set [3] is “appears stable”. Besides, the “original signal still observed by LC-MS” value in data set [3] (PBS, 37° C., 24 hours) is on record as “more than 85%”. Also, in data set [3] (PBS, 37° C., 72 hours), the “prochelator still present in solution (LC-MS)” value is listed as “approximately 60%”. For the same compound, the absorbance spectrum change result in data set [3] (PBS, 37° C., after 72 hours) was “only very small spectral changes”.

On to `[O-][n+]1ccccc1S` [PT, 2-mercaptopyridine N-oxide], for which the IC50 (commonly the concentration that gives 50% inhibition) in data set [1] (500 μM BCS, depending on strain, read-out: IC50 across strains under Cu limiting conditions) lay in the range of 6 to 20 µM; in data set [1] (LB broth, span over 7 strains, read-out: IC50 across all strains tested), 2 to 11 µM.
